Source: the NIST ThermoML archive (doi:10.1016/j.fluid.2014.12.033)
Numbers after ± are expanded uncertainties.

Settings: Liquid

| Normal boiling temperature (DSC) [°C] | Normal boiling temperature (Distillation) [°C] | SMILES |
| --- | --- | --- |
| 260 ± 16 |  | CCCCC(CC)COP(=O)(O)OCC(CC)CCCC (centres undefined) [bis(2-ethylhexyl) hydrogen phosphate] |
|  | 193 ± 1 | CCCCCCCCO [octan-1-ol] |
|  | 82 ± 1 | C1CCCCC1 [cyclohexane] |
|  | 62 ± 1 | ClC(Cl)Cl [trichloromethane] |
